# Results: patent US9730938B2, “Bruton's tyrosine kinase inhibitor combinations and uses thereof” (Pharmacyclics LLC, priority 2014, dated 2017)
# How the values were obtained:
# Assay type in all cases: cell-based
# Details in all cases: 3 days
# [1] = test system: U2932; assay: Combined drug treatment cell viability, CellTiter-Glo assay (Example 1)
# Method: (§1) DLBCL cells at either 1×10^4 cells or 2×10^4 cells were plated onto each well of a 96-W plate (Table 1).
# (§2) The stock solutions for the IDH1 inhibitor AGI5198 and the MALT1 inhibitor MI-2 were each prepared at 50 mM concentration.
# (§3) The 96-W plate was then incubated for 3 days. Cell viability was examined using a CellTiter-Glo assay.
# (§4) A 40 μL of CellTiter-Glo reagent was added directly into each well of the 96-W plate. The plate was then shaken on a Shaker (Labsystem Wellmix) at speed 5 for 10-20 min at room temperature. Next, 100 μL of the mixed medium was transferred to a white, non-transparent, flat bottom 96-W plate for assaying. A Flexstation 3 luminometer was used for detecting and measuring the luminescent signals. Measurements were taken at room temperature.
# (§5) In general, the combination is described as synergistic (CI<1), additive (CI=1), or antagonistic (CI>1). Synergism is further separated into very strong synergism (<0.1), strong synergism (0.1-0.3), synergism (0.3-0.7), moderate synergism (0.7-0.85), and slight synergism (0.85-0.9).
# [2] = test system: SU-DHL-2; assay: as above
# Method: as §1, §2, §3, §4, §5
# [3] = test system: TMD8; assay: as above
# Method: as §1, §2, §3, §4, §5
# [4] = test system: OCI-LY-3; assay: as above
# Method: as §1, §2, §3, §4, §5
# [5] = test system: OCI-LY-10; assay: as above
# Method: as §1, §2, §3, §4, §5
# [6] = test system: U2932; assay: Combined drug treatment cell viability, CellTiter-Glo assay (Example 2)
# [7] = test system: OCI-LY-3; assay: as above
# [8] = test system: SU-DHL-2; assay: as above
# [9] = test system: HBL-1; assay: as above
# [10] = test system: TMD8; assay: as above
# [11] = test system: OCI-LY-10; assay: as above
# [12] = ibrutinib 0 nM, IDH1i 10 uM / MALT1i 200 nM alone
# [13] = ibrutinib 0.0256 nM, IDH1i 10 uM / MALT1i 200 nM / medium alone
# [14] = ibrutinib 0.128 nM, IDH1i 10 uM / MALT1i 200 nM / medium alone
# [15] = ibrutinib 0.64 nM, IDH1i 10 uM / MALT1i 200 nM / medium alone
# [16] = ibrutinib 3.2 nM, IDH1i 10 uM / MALT1i 200 nM / medium alone
# [17] = ibrutinib 16 nM, IDH1i 10 uM / MALT1i 200 nM / medium alone
# [18] = ibrutinib 80 nM, IDH1i 10 uM / MALT1i 200 nM / medium alone
# [19] = ibrutinib 400 nM, IDH1i 10 uM / MALT1i 200 nM / medium alone
# [20] = ibrutinib 2000 nM, IDH1i 10 uM / MALT1i 200 nM / medium alone
# [21] = ibrutinib 10000 nM, IDH1i 10 uM / MALT1i 200 nM / medium alone
# [22] = ibrutinib 0 nM, IDH1i 10 uM / MALT1i 5 uM alone
# [23] = ibrutinib 0.0256 nM, IDH1i 10 uM / MALT1i 5 uM / medium alone
# [24] = ibrutinib 0.128 nM, IDH1i 10 uM / MALT1i 5 uM / medium alone
# [25] = ibrutinib 0.64 nM, IDH1i 10 uM / MALT1i 5 uM / medium alone
# [26] = ibrutinib 3.2 nM, IDH1i 10 uM / MALT1i 5 uM / medium alone
# [27] = ibrutinib 16 nM, IDH1i 10 uM / MALT1i 5 uM / medium alone
# [28] = ibrutinib 80 nM, IDH1i 10 uM / MALT1i 5 uM / medium alone
# [29] = ibrutinib 400 nM, IDH1i 10 uM / MALT1i 5 uM / medium alone
# [30] = ibrutinib 2000 nM, IDH1i 10 uM / MALT1i 5 uM / medium alone
# [31] = ibrutinib 10000 nM, IDH1i 10 uM / MALT1i 5 uM / medium alone
# [32] = ibrutinib 0 nM, JAK3 10 μM / MCL-1 3 μM alone
# [33] = ibrutinib 0.0512 nM, JAK3 10 μM / MCL-1 3 μM / medium alone
# [34] = ibrutinib 0.256 nM, JAK3 10 μM / MCL-1 3 μM / medium alone
# [35] = ibrutinib 1.28 nM, JAK3 10 μM / MCL-1 3 μM / medium alone
# [36] = ibrutinib 6.4 nM, JAK3 10 μM / MCL-1 3 μM / medium alone
# [37] = ibrutinib 32 nM, JAK3 10 μM / MCL-1 3 μM / medium alone
# [38] = ibrutinib 160 nM, JAK3 10 μM / MCL-1 3 μM / medium alone
# [39] = ibrutinib 800 nM, JAK3 10 μM / MCL-1 3 μM / medium alone
# [40] = ibrutinib 20000 nM, JAK3 10 μM / MCL-1 3 μM / medium alone
# [41] = ibrutinib 40000 nM, JAK3 10 μM / MCL-1 3 μM / medium alone
smiles,measurement,setting,value
Cc1ccccc1C(C(=O)NC1CCCCC1)N(C(=O)Cn1ccnc1C)c1cccc(F)c1 (centres unmarked) [AGI5198],luminescence (CellTiter-Glo),[1]; [12],52209.68
same,luminescence (CellTiter-Glo),[1]; [13],47490.41
same,luminescence (CellTiter-Glo),[1]; [14],48958.10
same,luminescence (CellTiter-Glo),[1]; [15],45155.81
same,luminescence (CellTiter-Glo),[1]; [16],46620.86
same,luminescence (CellTiter-Glo),[1]; [17],43920.00
same,luminescence (CellTiter-Glo),[1]; [18],43730.28
same,luminescence (CellTiter-Glo),[1]; [19],45769.76
same,luminescence (CellTiter-Glo),[1]; [20],43047.82
same,luminescence (CellTiter-Glo),[1]; [21],31970.32
same,luminescence (CellTiter-Glo),[2]; [12],124126.7
same,luminescence (CellTiter-Glo),[2]; [13],130906.9
same,luminescence (CellTiter-Glo),[2]; [14],145229.1
same,luminescence (CellTiter-Glo),[2]; [15],142615.3
same,luminescence (CellTiter-Glo),[2]; [16],156751.0
same,luminescence (CellTiter-Glo),[2]; [17],152240.5
same,luminescence (CellTiter-Glo),[2]; [18],152613.5
same,luminescence (CellTiter-Glo),[2]; [19],145121.4
same,luminescence (CellTiter-Glo),[2]; [20],149634.6
same,luminescence (CellTiter-Glo),[2]; [21],50666.3
same,luminescence (CellTiter-Glo),"[3]; ibrutinib 0 nM, IDH1i 10 uM / MALT1i 100 nM alone",75993.70
same,luminescence (CellTiter-Glo),"[3]; ibrutinib 0.0256 nM, IDH1i 10 uM / MALT1i 100 nM / medium alone",25500.80
same,luminescence (CellTiter-Glo),"[3]; ibrutinib 0.128 nM, IDH1i 10 uM / MALT1i 100 nM / medium alone",25788.09
same,luminescence (CellTiter-Glo),"[3]; ibrutinib 0.64 nM, IDH1i 10 uM / MALT1i 100 nM / medium alone",22928.31
same,luminescence (CellTiter-Glo),"[3]; ibrutinib 3.2 nM, IDH1i 10 uM / MALT1i 100 nM / medium alone",23004.75
same,luminescence (CellTiter-Glo),"[3]; ibrutinib 16 nM, IDH1i 10 uM / MALT1i 100 nM / medium alone",22519.77
same,luminescence (CellTiter-Glo),"[3]; ibrutinib 80 nM, IDH1i 10 uM / MALT1i 100 nM / medium alone",22451.24
same,luminescence (CellTiter-Glo),"[3]; ibrutinib 400 nM, IDH1i 10 uM / MALT1i 100 nM / medium alone",19936.75
same,luminescence (CellTiter-Glo),"[3]; ibrutinib 2000 nM, IDH1i 10 uM / MALT1i 100 nM / medium alone",19649.45
same,luminescence (CellTiter-Glo),"[3]; ibrutinib 10000 nM, IDH1i 10 uM / MALT1i 100 nM / medium alone",9604.64
same,luminescence (CellTiter-Glo),[4]; [22],61813.89
same,luminescence (CellTiter-Glo),[4]; [23],60845.63
same,luminescence (CellTiter-Glo),[4]; [24],58171.75
same,luminescence (CellTiter-Glo),[4]; [25],64267.34
same,luminescence (CellTiter-Glo),[4]; [26],61774.53
same,luminescence (CellTiter-Glo),[4]; [27],63970.82
same,luminescence (CellTiter-Glo),[4]; [28],65372.05
same,luminescence (CellTiter-Glo),[4]; [29],68413.28
same,luminescence (CellTiter-Glo),[4]; [30],66282.58
same,luminescence (CellTiter-Glo),[4]; [31],58163.88
same,luminescence (CellTiter-Glo),[5]; [22],54469.95
same,luminescence (CellTiter-Glo),[5]; [23],60402.37
same,luminescence (CellTiter-Glo),[5]; [24],45182.13
same,luminescence (CellTiter-Glo),[5]; [25],49163.38
same,luminescence (CellTiter-Glo),[5]; [26],37017.16
same,luminescence (CellTiter-Glo),[5]; [27],22951.32
same,luminescence (CellTiter-Glo),[5]; [28],21796.92
same,luminescence (CellTiter-Glo),[5]; [29],22543.73
same,luminescence (CellTiter-Glo),[5]; [30],22738.32
same,luminescence (CellTiter-Glo),[5]; [31],21999.40
Cc1csc(=NC2CCCCC2)n1/N=C/c1ccc(O)c(O)c1O [MIM1],luminescence (CellTiter-Glo),[6]; [32],59686.00
same,luminescence (CellTiter-Glo),[6]; [33],55451.36
same,luminescence (CellTiter-Glo),[6]; [34],53088.09
same,luminescence (CellTiter-Glo),[6]; [35],54122.68
same,luminescence (CellTiter-Glo),[6]; [36],53424.93
same,luminescence (CellTiter-Glo),[6]; [37],51898.43
same,luminescence (CellTiter-Glo),[6]; [38],50938.68
same,luminescence (CellTiter-Glo),[6]; [39],51419.90
same,luminescence (CellTiter-Glo),[6]; [40],17553.45
same,luminescence (CellTiter-Glo),[6]; [41],49251.78
same,luminescence (CellTiter-Glo),[7]; [32],80237.62
same,luminescence (CellTiter-Glo),[7]; [33],76311.68
same,luminescence (CellTiter-Glo),[7]; [34],80052.59
same,luminescence (CellTiter-Glo),[7]; [35],80436.06
same,luminescence (CellTiter-Glo),[7]; [36],73884.80
same,luminescence (CellTiter-Glo),[7]; [37],75378.47
same,luminescence (CellTiter-Glo),[7]; [38],65609.22
same,luminescence (CellTiter-Glo),[7]; [39],74844.82
same,luminescence (CellTiter-Glo),[7]; [40],75182.71
same,luminescence (CellTiter-Glo),[7]; [41],74901.14
same,luminescence (CellTiter-Glo),[8]; [32],59686.0
same,luminescence (CellTiter-Glo),[8]; [33],55451.4
same,luminescence (CellTiter-Glo),[8]; [34],53088.1
same,luminescence (CellTiter-Glo),[8]; [35],54122.7
same,luminescence (CellTiter-Glo),[8]; [36],53424.9
same,luminescence (CellTiter-Glo),[8]; [37],51898.4
same,luminescence (CellTiter-Glo),[8]; [38],50938.7
same,luminescence (CellTiter-Glo),[8]; [39],51419.9
same,luminescence (CellTiter-Glo),[8]; [40],17553.4
same,luminescence (CellTiter-Glo),[8]; [41],49251.8
same,luminescence (CellTiter-Glo),[9]; [32],51241.07
same,luminescence (CellTiter-Glo),[9]; [33],27898.48
same,luminescence (CellTiter-Glo),[9]; [34],29488.62
same,luminescence (CellTiter-Glo),[9]; [35],35637.34
same,luminescence (CellTiter-Glo),[9]; [36],30743.57
same,luminescence (CellTiter-Glo),[9]; [37],31548.03
same,luminescence (CellTiter-Glo),[9]; [38],32832.47
same,luminescence (CellTiter-Glo),[9]; [39],28815.56
same,luminescence (CellTiter-Glo),[9]; [40],7366.12
same,luminescence (CellTiter-Glo),[9]; [41],26941.18
same,luminescence (CellTiter-Glo),[10]; [32],36019.47
same,luminescence (CellTiter-Glo),[10]; [33],19059.39
same,luminescence (CellTiter-Glo),[10]; [34],18570.62
same,luminescence (CellTiter-Glo),[10]; [35],18591.98
same,luminescence (CellTiter-Glo),[10]; [36],19112.81
same,luminescence (CellTiter-Glo),[10]; [37],19032.68
same,luminescence (CellTiter-Glo),[10]; [38],19452.01
same,luminescence (CellTiter-Glo),[10]; [39],18063.15
same,luminescence (CellTiter-Glo),[10]; [40],4767.52
same,luminescence (CellTiter-Glo),[10]; [41],15624.64
same,luminescence (CellTiter-Glo),[11]; [32],43143.62
same,luminescence (CellTiter-Glo),[11]; [33],33524.45
same,luminescence (CellTiter-Glo),[11]; [34],26007.29
same,luminescence (CellTiter-Glo),[11]; [35],18751.19
same,luminescence (CellTiter-Glo),[11]; [36],11024.10
same,luminescence (CellTiter-Glo),[11]; [37],8025.84
same,luminescence (CellTiter-Glo),[11]; [38],8938.24
same,luminescence (CellTiter-Glo),[11]; [39],9390.40
same,luminescence (CellTiter-Glo),[11]; [40],9228.91
same,luminescence (CellTiter-Glo),[11]; [41],10886.83
